From patent publication US20230374034A1, “NOVEL BICYCLIC COMPOUNDS” (PRISM BIOLAB CO., LTD., priority 2020, published 2023)
Read-outs that look alike come from different tables or passages of the source.

System: NICD (Notch intracellular domain) CSL-bla reporter in HeLa cells
Experiment: Notch assay (CellSensor T-REx NICD CSL-bla HeLa beta-lactamase reporter; Method 1 / Method 2)
Format: cell-based
Conditions: Homo sapiens, 10 μM compound, read-out: inhibiton (%) at 10 μM
Procedure, shortened: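 HeLa cells carrying doxycycline-inducible NICD and a CSL-driven beta-lactamase reporter, 10^3 cells/well, were treated with compound plus doxycycline for 16-20 h at 37 °C. CCF4-AM substrate was loaded for 4 h at room temperature; background-subtracted blue (460 nm)/green (530 nm) emission ratio taken per well.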

[1] = Method 1 (10× compound prepared in assay medium, added to plated cells)
[2] = Method 2 (40 nL of 1000× compound added to plate with Echo)

Row | SMILES | inhibition at 10 µM [1] | inhibition at 10 µM [2]
1 | CC(C)[C@H]1C(=O)N(Cc2cccc3ccccc23)CC2N(C(=O)OCc3cccc4ccccc34)O[C@H](CC(N)=O)C(=O)N21 (stereo partly drawn) [Compound I-19, (3R,6S)-naphthalen-1-ylmethyl 3-(2-amino-2-oxoethyl)-6-isopropyl-8-(naphthalen-1-ylmethyl)-4,7-dioxohexahydropyrazino[2,1-c][1,2,4]oxadiazine-1(6H)-carboxylate] | 67.3% | 
2 | CC(C)CCOC(=O)N1O[C@H](C)C(=O)N2C1CN([C@@H](Cc1ccccc1)C(=O)NCCCO)C(=O)[C@@H]2Cc1ccccc1 (stereo partly drawn) [Compound I-89, isopentyl (3R,6S)-6-benzyl-8-((S)-1-((3-hydroxypropyl)amino)-1-oxo-3-phenylpropan-2-yl)-3-methyl-4,7-dioxohexahydropyrazino[2,1-c][1,2,4]oxadiazine-1(6H)-carboxylate] |  | 58.3%
3 | CC(C)N1CC2N(C(=O)OCc3cccc4ccccc34)O[C@H](Cc3ccccc3)C(=O)N2[C@@H](Cc2ccc(O)cc2)C1=O (stereo partly drawn) [Compound I-17, (3R,6S)-naphthalen-1-ylmethyl 3-benzyl-6-(4-hydroxybenzyl)-8-isopropyl-4,7-dioxohexahydropyrazino[2,1-c][1,2,4]oxadiazine-1(6H)-carboxylate] | 88% | 
4 | CC(C)CCCNC(=O)[C@H](Cc1ccc(O)cc1)N1CC2N(C(=O)OCCc3ccccc3)O[C@H](CC(C)C)C(=O)N2[C@@H](Cc2ccc(O)cc2)C1=O (stereo partly drawn) [Compound I-99, phenethyl (3R,6S)-6-(4-hydroxybenzyl)-8-((S)-3-(4-hydroxyphenyl)-1-((4-methylpentyl)amino)-1-oxopropan-2-yl)-3-isobutyl-4,7-dioxohexahydropyrazino [2,1-c][1,2,4]oxadiazine-1(6H)-carboxylate] |  | 58%
5 | CC(C)COC(=O)N1O[C@H](C(C)C)C(=O)N2C1CN(Cc1cccc3ccccc13)C(=O)[C@@H]2Cc1ccc(O)cc1 (stereo partly drawn) [Compound I-1, (3R,6S)-isobutyl 6-(4-hydroxybenzyl)-3-isopropyl-8-(naphthalen-1-ylmethyl)-4,7-dioxohexahydropyrazino[2,1-c][1,2,4]oxadiazine-1(6H)-carboxylate] | 55.9% | 
6 | CC(C)C[C@H]1C(=O)N(CCc2ccc(O)cc2)CC2N(C(=O)OCCc3ccc(O)cc3)O[C@H](Cc3ccc(O)cc3)C(=O)N21 (stereo partly drawn) [Compound I-41, (3R,6S)-4-hydroxyphenethyl 3-(4-hydroxybenzyl)-8-(4-hydroxyphenethyl)-6-isobutyl-4,7-dioxohexahydropyrazino[2,1-c][1,2,4]oxadiazine-1(6H)-carboxylate] |  | 59.3%
7 | CCCC[C@@H](C(=O)NCCc1ccccc1)N1CC2N(C(=O)OCCc3ccc(O)cc3)O[C@H](CC(C)C)C(=O)N2[C@@H](Cc2ccc(O)cc2)C1=O (stereo partly drawn) [Compound I-103, 4-hydroxyphenethyl (3R,6S)-6-(4-hydroxybenzyl)-3-isobutyl-4,7-dioxo-8-((S)-1-oxo-1-(phenethylamino)hexan-2-yl)hexahydropyrazino[2,1-c][1,2,4]oxadiazine-1(6H)-carboxylate] |  | 59.9%
8 | CC(C)CCN1CC2N(C(=O)OCc3cccc4ccccc34)O[C@H](Cc3ccccc3)C(=O)N2[C@@H](C)C1=O (stereo partly drawn) [Compound I-15, (3R,6S)-naphthalen-1-ylmethyl 3-benzyl-8-isopentyl-6-methyl-4,7-dioxohexahydropyrazino[2,1-c][1,2,4]oxadiazine-1(6H)-carboxylate] | 52.6% | 
9 | CCCC[C@H]1C(=O)N(CCC(C)C)CC2N(C(=O)OCc3cccc4ccccc34)O[C@H](CC(N)=O)C(=O)N21 (stereo partly drawn) [Compound I-20, (3R,6S)-naphthalen-1-ylmethyl 3-(2-amino-2-oxoethyl)-6-butyl-8-isopentyl-4,7-dioxohexahydropyrazino[2,1-c][1,2,4]oxadiazine-1(6H)-carboxylate] | 66.1% | 
